Laboratory results reported in patent publication US6046182A, “Steroid carbamates as potentiating agents” (Satish BATRA, priority 1996, dated 2000).
Where two headings read alike, the source gives them in different places.

How the values were obtained:
HCT-15 = experiment: Potentiation of daunorubicin (50 nM) in human colon tumor cells HCT-15 (cell survival, Coulter counter); type: cell-based; details: HCT-15, read-out: IC50, HCT-15 (concentration required to reduce cell survival by 50%)
AT-1 = experiment: Potentiation of daunorubicin (30 nM) in rat prostatic tumor cells AT-1 (cell survival, Coulter counter); type: cell-based
HCT-15 cells = experiment: In vivo HCT-15 subcutaneous xenograft in SCID mice, doxorubicin alone or plus compound 1:1; design: Significance (p) of difference in tumor growth between (1) vehicle and (2) doxorubicin, symbol * / Significance (p) of difference in tumor growth between (1) vehicle and (2) doxorubicin, symbol ***: dose or concentration left out as unconfirmed; details: days 9, 13, 17
[1] = cited from earlier work
tumors = details: animal models; cited from earlier work
[2] = with daunorubicin 30 nM, 24 h, then 96 h drug free, AT-1, read-out: IC50, AT-1 (concentration required to reduce cell survival by 50%)

For CCCCN(CCCC)C(=O)OC1C[C@]2(C)[C@@H](C(C)=O)CC[C@H]2[C@@H]2CCC3=CC(=O)CC[C@]3(C)[C@@H]12 (stereo partly shown) [Compound 1:1, pregn-4-ene-3,20-dione-11-yl, N,N-dibutylcarbamate], which IC50 (HCT-15; with daunorubicin 50 nM, 24 h, then 96 h drug free) is on record?
The IC50 was 510 nM.

What about the IC50 (AT-1; [2]) of the same compound?
Its IC50 is 760 nM.

What about the “Potentiating effect in vivo” value (HCT-15 cells; compound 1:1 400 mg/kg p.o. 2 hours before doxorubicin i.v.) of the same compound?
Its value is “potentiating effect”.

Which “In vivo activity in combination with doxorubicin” value [1] does the source give for COc1ccc(CCN(C)CCCC2(c3ccc4ccccc4c3)SCCCS2)cc1OC [RO 11-2933] here?
Its value is “in vivo activity”.

Which “Significance (p) of difference in tumor growth between (1) vehicle and (2) doxorubicin, symbol *” value (HCT-15 cells; doxorubicin i.v., symbol *) does the source give for COc1cccc2c1C(=O)c1c(O)c3c(c(O)c1C2=O)C[C@@](O)(C(=O)CO)C[C@@H]3O[C@H]1C[C@H](N)[C@H](O)[C@H](C)O1 [doxorubicin] here?
Its value is < 0.05.

What about the “Significance (p) of difference in tumor growth between (1) vehicle and (2) doxorubicin, symbol ***” value (HCT-15 cells; doxorubicin i.v., symbol ***) of the same compound?
The value was < 0.005.

For COc1ccc(CCN(C)CCCC(C#N)(c2ccc(OC)c(OC)c2)C(C)C)cc1OC (stereo not shown) [verapamil], which IC50 (HCT-15) is on record?
The IC50 was 500 nM.

What about the IC50 (AT-1; read-out: IC50, AT-1 (concentration required to reduce cell survival by 50%)) of the same compound?
The IC50 was 740 nM.

For CC(=O)[C@H]1CC[C@H]2[C@@H]3CCC4=CC(=O)CC[C@]4(C)[C@H]3C(OC(=O)N(Cc3ccccc3)Cc3ccccc3)C[C@]12C (stereo partly shown) [1:35, pregn-4-ene-3,20-dione-11-yl, N,N-dibenzyl-carbamate], which IC50 (AT-1; [2]) is on record?
Its IC50 is 150 nM.

For CC12CCC3c4ccc(OC(=O)N(CCCl)CCCl)cc4CCC3C1CCC2O (stereo not shown) [estramustine], which IC50 (HCT-15) is on record?
Its IC50 is > 2500 nM.

And the “Potentiation of radiation effects on tumors” value (tumors)?
Its value is “potentiate radiation effects on tumors”.

Which IC50 (AT-1; [2]) does the source give for CCCCN(CCCC)CCCNC(=O)OC(C)[C@H]1CC[C@H]2[C@@H]3CCC4=CC(=O)CC[C@]4(C)[C@H]3CC[C@]12C (stereo partly shown) [1:13, pregn-4-ene-3-one-20-yl, N-(3-dibutylamino-propyl)-carbamate] here?
Its IC50 is 210 nM.

For CCCCN(CCCC)CCCNC(=O)OC1CC[C@@]2(C)C(=CC[C@H]3[C@@H]4CC[C@H](C(C)=O)[C@@]4(C)CC[C@@H]32)C1 (stereo partly shown) [1:4, pregn-5-ene-20-one-3-yl, N-(3-dibutylamino-propyl)-carbamate], which IC50 (AT-1; [2]) is on record?
Its IC50 is 190 nM.
